Patent publication US20170157135A1 (Novogen Limited, priority 2013, published 2017)

Assays:
Type in all cases: cell-based
A549 lung (NSLC) cells = assay: Anti-proliferative assay (cell-titre luminescent), A549; settings: Homo sapiens; A549, 72 hours, luminescence
Experimental: (§1) The ability of compounds 2002, 2009 and 2013-2064 to inhibit the proliferation of cancer cells representative of neuroblastoma, melanoma, prostate cancer, colorectal cancer, non-small cell lung carcinoma, and triple negative breast cancer was assessed. These studies were conducted by contract research (GVK-BIO). Briefly, a pre-determined number of cells as calculated from cell growth assays for each of the cell lines employed were seeded into their respective culture medium (using ATCC culture parameters—http://www.atcc.org) and cultured for 24 h at 37° C. and 5% CO2 in 96-well culture plates. Once attached, each cell line was then exposed to various concentrations of each respective analogue (30, 10, 3, 1, 0.3 and 0.1 μM), cultured for a further 72 hours and exposed to cell-titre luminescent reagent (100 μL/well) for a further 30 minutes). Luminescence was captured using an EnVision multilabel reader and the data for each analogue concentration compared against no treatment control. Cell viability was normalized to control (vehicle alone) and dose-response curves, and half maximal effective concentration (EC50) values were determined using Graph Pad Prism 6 (nonlinear regression sigmoidal dose-response variable slope).

[1] = system: SK-N-SH neuroblastoma cells; assay: Anti-proliferative assay (cell-titre luminescent), SK-N-SH; settings: Homo sapiens, 72 hours, luminescence
Experimental: as §1

[2] = system: PC3 prostate cancer cells; assay: Anti-proliferative assay (cell-titre luminescent), PC3; settings: PC3, 72 hours, luminescence
Experimental: as §1

[3] = system: DU145 prostate cancer cells; assay: Anti-proliferative assay (cell-titre luminescent), DU145; settings: Homo sapiens, DU-145; DU145, 72 hours, luminescence
Experimental: as §1

[4] = system: MDA-MB-231 breast cancer cells; assay: Anti-proliferative assay (cell-titre luminescent), MDA-MB-231; settings: Homo sapiens; MDA-MB-231, 72 hours, luminescence
Experimental: as §1

[5] = system: CaCo2 colorectal cancer cells; assay: Anti-proliferative assay (cell-titre luminescent), CaCo2; settings: Homo sapiens, Caco-2; CaCo2, 72 hours, luminescence
Experimental: as §1

SK-Mel-28 melanoma cells = assay: Anti-proliferative assay (cell-titre luminescent), SK-Mel-28; settings: Homo sapiens; SK-Mel-28, 72 hours, luminescence
Experimental: as §1

| SMILES | IC50 (A549 lung (NSLC) cells) [µM] | IC50 [1] [µM] | IC50 [2] [µM] | IC50 [3] [µM] | IC50 [4] [µM] | IC50 [5] [µM] | IC50 (SK-Mel-28 melanoma cells) [µM] |
| --- | --- | --- | --- | --- | --- | --- | --- |
| COc1ccc2c(c1)c(C(=O)N1CCN(CCc3ccccc3)CC1)c(C)n2CCCN1CCN(C)CC1 [Compound 2061, (5-methoxy-2-methyl-1-(3-(4-methylpiperazin-1-yl)propyl)-1H-indol-3-yl)(4-phenethylpiperazin-1-yl)methanone] | > 30 | > 30 | > 30 | > 30 | > 30 | > 30 | 8.7 |
| CCN(CC)CCCn1c(C)c(C(=O)N2CCN(CCc3cccc(OC)c3)CC2)c2cc(OC)ccc21 [Compound 2054, (1-(3-(diethylamino)propyl)-5-methoxy-2-methyl-1H-indol-3-yl)(4-(3-methoxyphenethyl)piperazin-1-yl)methanone] | 17.8 | 10.4 | 6.9 | > 30 | 11.8 | > 30 | 5.4 |
| COc1ccc(CCN2CCN(C(=O)/C=C/c3c(C)n(CCCN(C)C)c4ccccc34)CC2)cc1 [Compound 2013, (E)-3-(1-(3-(dimethylamino)propyl)-2-methyl-1H-indol-3-yl)-1-(4-(4-methoxyphenethyl)piperazin-1-yl)prop-2-en-1-one] | 6.1 | 3.2 | 4.8 | 10 | 6.8 | 9.1 | 3.8 |
| Cc1c(/C=C/C(=O)N2CCN(CCc3ccc4c(c3)OCO4)CC2)c2ccccc2n1CCCN(C)C [Compound 2014, (E)-1-(4-(2-(benzo[d][1,3]dioxol-5-yl)ethyl)piperazin-1-yl)-3-(1-(3-(dimethylamino)propyl)-2-methyl-1H-indol-3-yl)prop-2-en-1-one] | 25.7 | 3.7 | 6.5 | 7.6 | 6.2 | 9 | 3.2 |
| COc1ccc2c(c1)c(C(=O)N1CCN(CCc3ccc4c(c3)OCO4)CC1)c(C)n2CCCN1CCN(C)CC1 [Compound 2058, (4-(2-(benzo[d][1,3]dioxol-5-yl)ethyl)piperazin-1-yl)(5-methoxy-2-methyl-1-(3-(4-methylpiperazin-1-yl)propyl)-1H-indol-3-yl)methanone] | 13.9 | 8 | 12 | 21.1 | 29.8 | 10.8 | 4.8 |
| COc1ccc2c(c1)c(/C=C/C(=O)N1CCN(CCc3ccc(F)cc3)CC1)c(C)n2CCCN1CCN(C)CC1 [Compound 2029, (E)-1-(4-(4-fluorophenethyl)piperazin-1-yl)-3-(5-methoxy-2-methyl-1-(3-(4-methylpiperazin-1-yl)propyl)-1H-indol-3-yl)prop-2-en-1-one] | 4.5 | 2.8 | 2.9 | 4.2 | 3.3 | 4.4 | 5.7 |
| COc1ccc(CCN2CCN(C(=O)c3c(C)n(CCCN4CCN(C)CC4)c4ccc(OC)cc34)CC2)cc1 [Compound 2057, (5-methoxy-2-methyl-1-(3-(4-methylpiperazin-1-yl)propyl)-1H-indol-3-yl)(4-(4-methoxyphenethyl)piperazin-1-yl)methanone] | 21.1 | 7.2 | 9 | 30 | 7.5 | 13.3 | 4.4 |
| Cc1c(C(=O)N2CCN(CCc3ccccc3)CC2)c2ccccc2n1CCCN(C)C [Compound 2043, (1-(3-(dimethylamino)propyl)-2-methyl-1H-indol-3-yl)(4-phenethylpiperazin-1-yl)methanone] | > 30 | 17.4 | > 30 | > 30 | > 30 | > 30 | 17.2 |
| Cc1c(C(=O)N2CCN(CCc3cccc(F)c3)CC2)c2ccccc2n1CCCN(C)C [Compound 2041] | > 30 | 13.2 | > 30 | > 30 | > 30 | > 30 | 17.1 |
| COc1ccc(CCN2CCN(C(=O)c3c(C)n(CCCN(C)C)c4ccc(OC)cc34)CC2)cc1 [Compound 2045, (1-(3-(dimethylamino)propyl)-5-methoxy-2-methyl-1H-indol-3-yl)(4-(4-methoxyphenethyl)piperazin-1-yl)methanone] | > 30 | > 30 | > 30 | > 30 | > 30 | > 30 | > 30 |
| CCN(CC)CCCn1c(C)c(C(=O)N2CCN(CCc3ccc(F)cc3)CC2)c2cc(OC)ccc21 [Compound 2050, (1-(3-(diethylamino)propyl)-5-methoxy-2-methyl-1H-indol-3-yl)(4-(4-fluorophenethyl)piperazin-1-yl)methanone] | 19.8 | 21.4 | 26.4 | 15.9 | 14 | 10.4 | 5.3 |
| COc1cccc(CCN2CCN(C(=O)/C=C/c3c(C)n(CCCN4CCN(C)CC4)c4ccc(OC)cc34)CC2)c1 [Compound 2033, (E)-3-(5-methoxy-2-methyl-1-(3-(4-methylpiperazin-1-yl)propyl)-1H-indol-3-yl)-1-(4-(3-methoxyphenethyl)piperazin-1-yl)prop-2-en-1-one] | 10.8 | 3.3 | 6.8 | 18.6 | 4.5 | 4.2 | 4.2 |
| COc1ccc2c(c1)c(C(=O)N1CCN(CCc3ccc(F)cc3)CC1)c(C)n2CCCN1CCN(C)CC1 [Compound 2056, (4-(4-fluorophenethyl)piperazin-1-yl)(5-methoxy-2-methyl-1-(3-(4-methylpiperazin-1-yl)propyl)-1H-indol-3-yl)methanone] | 14.7 | 11.2 | 10.8 | 18.9 | 13.9 | 10.1 | 4.8 |
| COc1ccc2c(c1)c(C(=O)N1CCN(CCc3ccccc3)CC1)c(C)n2CCCN(C)C [Compound 2049, (1-(3-(dimethylamino)propyl)-5-methoxy-2-methyl-1H-indol-3-yl)(4-phenethylpiperazin-1-yl)methanone] | > 30 | 8.9 | 8.6 | > 30 | 7.5 | > 30 | 8.7 |
| CCN(CC)CCCn1c(C)c(/C=C/C(=O)N2CCN(CCc3ccc(F)cc3)CC2)c2cc(OC)ccc21 [Compound 2023, (E)-3-(1-(3-(diethylamino)propyl)-5-methoxy-2-methyl-1H-indol-3-yl)-1-(4-(4-fluorophenethyl)piperazin-1-yl)prop-2-en-1-one] | 5.2 | 3.6 | 5.6 | 4.4 | 4.6 | 10.3 | 2.7 |
| COc1ccc2c(c1)c(/C=C/C(=O)N1CCN(CCc3cccc(F)c3)CC1)c(C)n2CCCN(C)C [Compound 2021, (E)-3-(1-(3-(dimethylamino)propyl)-5-methoxy-2-methyl-1H-indol-3-yl)-1-(4-(3-fluorophenethyl)piperazin-1-yl)prop-2-en-1-one] | 5.4 | 5.4 | 7.2 | 6.9 | 4.8 | 7.4 | 4.3 |
| CCOc1ccc2c(c1)c(/C=C/C(=O)N1CCN(CCc3ccc(F)cc3)CC1)c(C)n2CCCN(C)C [Compound 2035, (E)-3-(1-(3-(dimethylamino)propyl)-5-ethoxy-2-methyl-1H-indol-3-yl)-1-(4-(4-fluorophenethyl)piperazin-1-yl)prop-2-en-1-one] | 8.3 | 3.3 | 5.6 | 6.2 | 3 | 5.1 | 3.2 |
| CCN(CC)CCCn1c(C)c(/C=C/C(=O)N2CCN(CCc3ccc(OC)cc3)CC2)c2cc(OC)ccc21 [Compound 2024, (E)-3-(1-(3-(diethylamino)propyl)-5-methoxy-2-methyl-1H-indol-3-yl)-1-(4-(4-methoxyphenethyl)piperazin-1-yl)prop-2-en-1-one] | 7.7 | 3.4 | 5.7 | 8.4 | 4.1 | 5.3 | 3 |
| COc1ccc2c(c1)c(C(=O)N1CCN(CCc3ccc4c(c3)OCO4)CC1)c(C)n2CCCN(C)C [Compound 2046, (4-(2-(benzo[d][1,3]dioxol-5-yl)ethyl)piperazin-1-yl)(1-(3-(dimethylamino)propyl)-5-methoxy-2-methyl-1H-indol-3-yl)methanone] | 14.4 | 7.9 | 20.3 | 13.3 | 11.3 | 8 | 4.4 |
